Assay results: article PMC5958098, “The trimeric solution structure and fucose-binding mechanism of the core fucosylation-specific lectin PhoSL” (Scientific Reports, 2018)

Legend:
[1] = molecular target: T1, PhoSL (Pholiota squarrosa, UniProt A0A384E107); assay: NMR chemical shift titration; type: binding; details: 20 mM Tris-HCl pH 7.5, 0.2 mM DTT, 308 K; 50 μM peptide (as monomer); average for the two anomers
T1 construct: chemically synthesized 40-residue peptide, free termini, no tag, reduced Cys (DTT), homotrimer; […]; repeat 1 of a 180-residue polypeptide; differs from literature peptide at positions 23, 27, 35, 40

[2] = molecular target: the molecule itself; assay: SEC; Superdex 75 10/300 with marker proteins; 96 μM PhoSL peptide; 20 mM Tris-HCl pH 7.5, 100 mM NaCl

Row | Molecule | Kd [1] [mM] | stoichiometry N [2]
1 | C[C@@H]1OC(O)[C@@H](O)[C@H](O)[C@@H]1O (mixture of isomers) [L-fucose] | 5.9 ± 0.2 | –
2 | APVPVTKLVCDGDTYKCTAYLDYGDGKWVAQWDTAVFHTT (PhoSL lectin of Pholiota squarrosa; it corresponds to the first of three PhoSL-like repeats of the 180-residue polypeptide; numbers count on: the 40-residue peptide; No N-terminal acetylation and no C-terminal amidation; Cys10 and Cys17 were reduced (DTT) in the NMR samples; Homotrimer by gel filtration combined with cross-linking, and by the NMR structure; also called PhoSL trimer; source: …) | – | 3
